The target of experiment [1] is T1, ADORA2A (Homo sapiens, UniProt P29274). Kind of experiment: GPCR screening, Calcium Flux (calcium mobilization), Agonist format. It is filed as cell-based. The conditions noted are these: read-out: Max Response. As for the experimental part: (§1) Cell lines were expanded from freezer stocks according to standard procedures. Cells were seeded in a total volume of 20 μL into black-walled, clear-bottom, Poly-D-lysine coated 384-well microplates and incubated at 37° C. for the appropriate time prior to testing.
T1 sequence (P29274 whole entry): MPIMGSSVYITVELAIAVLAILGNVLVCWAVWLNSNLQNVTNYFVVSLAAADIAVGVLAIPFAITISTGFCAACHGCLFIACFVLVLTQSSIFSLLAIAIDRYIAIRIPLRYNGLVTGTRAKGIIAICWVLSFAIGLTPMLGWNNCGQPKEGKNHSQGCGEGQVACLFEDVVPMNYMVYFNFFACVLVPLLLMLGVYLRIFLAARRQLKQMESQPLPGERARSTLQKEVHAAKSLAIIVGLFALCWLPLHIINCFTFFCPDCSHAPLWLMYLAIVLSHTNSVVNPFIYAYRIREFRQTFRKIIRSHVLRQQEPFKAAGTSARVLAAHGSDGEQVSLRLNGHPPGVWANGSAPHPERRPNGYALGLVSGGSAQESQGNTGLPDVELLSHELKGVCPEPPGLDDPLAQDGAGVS
(§2) Assays were performed in 1×Dye Loading Buffer consisting of 1×Dye, 1×Additive A and 2.5 mM Probenecid in HBSS/20 mM Hepes. Probenicid was prepared fresh. Cells were loaded with dye prior to testing. Media was aspirated from cells and replaced with 20 μL Dye Loading Buffer. Cells were incubated for 30-60 minutes at 37° C.
For agonist determination, cells were incubated with sample to induce response. […] Cells were incubated for 30 minutes at room temperature in the dark to equilibrate plate temperature.
Compound activity was analyzed using CBIS data analysis suite (ChemInnovation, CA).
(§3) When the calcium was released, the fluorescence of the dye was increased and the increase was measured in real-time.

For experiment [2], the target named is T1, ADORA2A. As to the kind of experiment: GPCR screening, Calcium Flux (calcium mobilization), Antagonist format. Type of experiment: cell-based. To be noted: for Emax: read-out: Max Response. Here is the method:
as §1, §2
For antagonist determination, cells were pre-incubated with sample followed by agonist challenge at the EC80 concentration. Intermediate dilution of sample stocks was performed to generate 3X sample in assay buffer. After dye loading, cells were removed from the incubator and 10 μL 3X sample was added. Cells were incubated for 30 minutes at room temperature in the dark to equilibrate plate temperature. Vehicle concentration was 1%.
Compound antagonist activity was measured on a FLIPR Tetra (MDS). Calcium mobilization was monitored for 2 minutes and 10 μL EC80 agonist in HBSS/20 mM Hepes was added to the cells 5 seconds into the assay.
For antagonist and negative allosteric modulation mode assays, percentage inhibition is calculated using the following formula: […]
as §3
FIGS. 1 and 2 show percent reacted (Y) versus concentration in μM (X). Compounds were tested in antagonist mode with the requested GPCR Biosensor Assay. For the antagonist assay, data was normalized to the maximal and minimal response observed in the presence of EC80 ligand and vehicle.

[3] abbreviates: Calcium Flux, Antagonist format.
Setting [4] is: Calcium Flux, Antagonist format, EC80 0.021 μM NECA, read-out: RC50 (Result Type IC50).
Where [5] appears, read: antagonist mode, text to FIGS. 1 and 2, EC80 0.021 μM NECA, read-out: half maximal inhibitory concentration (IC50).

Read-outs that look alike come from different tables or passages of the source.

For `CCn1c(=O)c2c(nc(/C=C/c3ccc(OC)c(OCF)c3)n2C)n(CC)c1=O` [Compound 8, (E)-1,3-diethyl-8-(3-(fluoromethoxy)-4-methoxystyryl)-7-methyl-3,7-dihydro-1H-purine-2,6-dione], the Emax on ADORA2A [1] amounted to 0%. At ADORA2A [2] (setting [3]), the “Curve Bottom” value was determined as 7.8668, the “Curve Top” value was 99.957, the Hill stood at 1.7211 and the Emax turned out to be 99.1%. Moreover, the IC50 at ADORA2A [2] (setting [4]) was found to be 174 nM. Besides, on ADORA2A [2] (setting [5]), the IC50 came out at 174 nM.
As for `CCn1c(=O)c2c(nc(/C=C/c3ccc(OCF)c(OC)c3)n2C)n(CC)c1=O` [Compound 9, (E)-1,3-diethyl-8-(4-(fluoromethoxy)-3-methoxystyryl)-7-methyl-3,7-dihydro-1H-purine-2,6-dione], on ADORA2A [1], the Emax worked out at 0%. For the same compound, on ADORA2A [2] (setting [3]), the “Curve Bottom” value is given as “−.090144”, the “Curve Top” value worked out at 99.922, the Hill was determined as 1.3438 and the Emax came to 99.7%. Also, the IC50 at ADORA2A [2] (setting [4]) was 95.5 nM. For the same compound, the IC50 on ADORA2A [2] (setting [5]) is 95.5 nM.

Source of the values: patent US20250353849A1, “PURINE COMPOUNDS FOR TREATING DISORDERS” (MARVEL BIOTECHNOLOGY, priority 2021, published 2025).
